Data set [1] relates to conversion of T cells into CD4+FoxP3+ Tregs. The conditions noted are these: co-culture of DCs and naive CD4+CD25- T cells; cited from earlier work.
The next data set has as its system PANO2 pancreatic cells. The conditions noted are these: orally dosed, cited from earlier work.
The nature of data set [2]: Rat oral PK studies of prodrugs at 5 mg/kg. Type of data set: in vivo. The conditions noted are these: after PO dose of 5 mg/kg example 7 in male Wistar Han rat; analyte as labelled. As to the method: Rat oral PK studies of prodrugs at 5 mg/kg dose (solution in 100% (40 mg oleic acid+25mg Tween 80+2 mL of PBS/fresh) at 0.5 mg/mL).
Data set [3] is described as follows: Plasma PK and tissue distribution after oral dosing of prodrug EXAMPLE 7 (5 mg/kg). The conditions noted are these: PO 5 mg/kg EXAMPLE 7 (prodrug), male Wistar Han rat, analyte as labelled. Type of data set: in vivo. Here is the method:
Tissue Distribution of drug intermediate C4 from oral dosing of C4 and of intermediate C4 from oral dosing of example 7 in rats
• Wistar Han rat, 185-197 g, male, N=8, purchased from Beijing Vital River Co. LTD. Qualification No.: SCXK(J) 2016-0011 11400700240027. Fasted overnight and fed 4 hr post dose. PO: 5 mg/kg (10 mL/kg) via oral gavage(N=8). Sampling at 1, 4, 8 and 24 hr , 4 time points, terminal bleeding for plasma, liver, lymph nodes and spleen collected at each time point

In data set [4] the test system is human peripheral blood mononuclear cells (PBMC). As to the kind of experiment: PBMC cytotoxicity assay (CellTiter-Glo). The class given is cell-based. The conditions noted are these: pCC50, CellTiter-Glo, stimulated human PBMC, 2 days. Here is the method: (§1) Compounds of the present invention were tested via high-throughput cellular assays utilizing detection of kynurenine via mass spectrometry and cytotoxicity as end-points. For the mass spectrometry and cytotoxicity assays, human peripheral blood mononuclear cells (PBMC) (PB003F; AllCells®, Alameda, Calif.) were stimulated with human interferon-γ (IFN-γ) (Sigma-Aldrich Corporation, St. Louis, Mo.) and lipopolysaccharide from Salmonella minnesota (LPS) (Invivogen, San Diego, Calif.) to induce the expression of indoleamine 2, 3-dioxygenase (IDO1). Compounds with IDO1 inhibitory properties decreased the amount of kynurenine produced by the cells via the tryptophan catabolic pathway. Cellular toxicity due to the effect of compound treatment was measured using CellTiter-Glo® reagent (CTG) (Promega Corporation, Madison, Wis.), which is based on luminescent detection of ATP, an indicator of metabolically active cells.
(§2) In preparation for the assays, test compounds were serially diluted 3-fold in
(§3) DMSO from a typical top concentration of 1 mM or 5 mM and plated at 0.5 μL in 384-well, polystyrene, clear bottom, tissue culture treated plates with lids (Greiner Bio-One, Kremsmünster, Austria) to generate 11-point dose response curves. Low control wells (0% kynurenine or 100% cytotoxicity) contained either 0.5 μL of DMSO in the presence of unstimulated (−IFN-γ/−LPS) PBMCs for the mass spectrometry assay or 0.5 μL of DMSO in the absence of cells for the cytotoxicity assay, and high control wells (100% kynurenine or 0% cytotoxicity) contained 0.5 μL of DMSO in the presence of stimulated (+IFN-γ/+LPS) PBMCs for both the mass spectrometry and cytotoxicity assays.
(§4) Frozen stocks of PBMCs were washed and recovered in RPMI 1640 medium (Thermo Fisher Scientific, Inc., Waltham, Mass.) supplemented with 10% v/v heat-inactivated fetal bovine serum (FBS) (Thermo Fisher Scientific, Inc., Waltham, Mass.), and 1× penicillin-streptomycin antibiotic solution (Thermo Fisher Scientific, Inc., Waltham, Mass.). The cells were diluted to 1,000,000 cells/mL in the supplemented RPMI 1640 medium. 50 μL of either the cell suspension, for the mass spectrometry assay, or medium alone, for the cytotoxicity assay, were added to the low control wells, on the previously prepared 384-well compound plates, resulting in 50,000 cells/well or 0 cells/well respectively. IFN- y and LPS were added to the remaining cell suspension at final concentrations of 100 ng/ml and 50 ng/ml respectively, and 50 μL of the stimulated cells were added to all remaining wells on the 384-well compound plates. The plates, with lids, were then placed in a 37 °C, 5% CO2 humidified incubator for 2 days.
(§5) Following incubation, the 384-well plates were removed from the incubator and allowed to equilibrate to room temperature for 30 minutes. For the cytotoxicity assay, CellTiter-Glo® was prepared according to the manufacturer's instructions, and 40 μL were added to each plate well. After a twenty minute incubation at room temperature, luminescence was read on an EnVision® Multilabel Reader (Perkin Elmer Inc., Waltham, Mass.). For the mass spectrometry assay, 10 μL of supernatant from each well of the compound-treated plates were added to 40 μL of acetonitrile, containing 10 μM of an internal standard for normalization, in 384-well, polypropylene, V-bottom plates (Greiner Bio-One, Kremsmunster, Austria) to extract the organic analytes. Following centrifugation at 2000 rpm for 10 minutes, 10 μL from each well of the acetonitrile extraction plates were added to 90 μL of sterile, distilled H2O in 384-well, polypropylene, V-bottom plates for analysis of kynurenine and the internal standard on the RapidFire 300 (Agilent Technologies, Santa Clara, Calif.) and 4000 QTRAP MS (SCIEX, Framingham, Mass.). MS data were integrated using Agilent Technologies' RapidFire Integrator software, and data were normalized for analysis as a ratio of kynurenine to the internal standard. […]
In general terms: ATP-based viability assays read luminescence as a measure of living cells.

Data set [5] addresses T1, indoleamine 2, 3-dioxygenase (IDO1) (Homo sapiens, UniProt P14902).
T1 construct: to induce the expression of indoleamine 2, 3-dioxygenase (IDO1); host or cells: human PBMC stimulated with IFN-gamma and LPS
As to the kind of experiment: IDO1 PBMC RapidFire MS assay (kynurenine detection). The class given is cell-based. The conditions noted are these: IFN-γ/LPS stimulated human PBMC, kynurenine by MS, 2 days; read-out: PBMC PXC50 (converted). As to the method:
as §1, §2, §3, §4, §5

T1 sequence (P14902 whole entry): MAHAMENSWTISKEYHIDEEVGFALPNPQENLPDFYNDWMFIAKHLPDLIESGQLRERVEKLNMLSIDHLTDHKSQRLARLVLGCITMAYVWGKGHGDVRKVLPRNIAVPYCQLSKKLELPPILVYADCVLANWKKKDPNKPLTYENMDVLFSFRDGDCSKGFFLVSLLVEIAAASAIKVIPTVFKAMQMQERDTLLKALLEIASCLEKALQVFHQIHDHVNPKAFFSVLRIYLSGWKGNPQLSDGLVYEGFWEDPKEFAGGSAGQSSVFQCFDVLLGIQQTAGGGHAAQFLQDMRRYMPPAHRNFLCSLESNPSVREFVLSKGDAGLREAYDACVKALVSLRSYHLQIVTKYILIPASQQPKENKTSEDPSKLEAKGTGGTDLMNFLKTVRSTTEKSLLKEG

Turning to `NS(=O)(=O)NCCNc1nonc1C(=NO)Nc1ccc(F)c(Br)c1` [INCB204360], the “conversion of T cells into CD4+FoxP3+ Tregs” value in data set [1] was “blocked the conversion”. Also, in the data set on PANO2 pancreatic cells (PANO2 syngeneic model, immunocompetent mice), the “inhibition of tumor growth” value was “significant dose-dependent inhibition of tumor growth”. Besides, the “effect on tumor growth” value in the data set with PANO2 pancreatic cells (same tumor implanted in immune-deficient mice) is on record as “without effect”.

For the molecule `CCCCCCCCCCCCCCCC(=O)OCC(COC(=O)CCCCCCCCCCCCCCC)OC(=O)CC(C)CC(=O)OCOC(=O)C[C@@H](C)c1ccc(N(CC(C)C)C2CCOCC2)c(Nc2cnc(Cl)cn2)c1` (stereo partly drawn) [example 7, 1-(1,3-bis(palmitoyloxy)propan-2-yl) 5-((((R)-3-(3-((5-chloropyrazin-2-yl)amino)-4-(isobutyl(tetrahydro-2H-pyran-4-yl)amino)phenyl)butanoyl)oxy)methyl) 3-methylpentanedioate], in data set [2], the DNAUC0_20 entry is “not detected”. In data set [3] (1 hr), the “liver Concentration Mean” value is “BQL”, the “liver Concentration individual” value is “BQL”, the “lymph node Concentration Mean” value is “BQL” and the “lymph node Concentration individual” value is recorded as “BQL”. Also, in data set [3] (1 hr), the “plasma Concentration Mean” value is “BQL”, the “plasma Concentration individual” value is given as “BQL”, the “spleen Concentration Mean” value is listed as “BQL” and the “spleen Concentration individual” value is “BQL”. In data set [3] (4 hr), the “liver Concentration Mean” value is reported as “BQL”, the “liver Concentration individual” value was “BQL”, the “lymph node Concentration Mean” value is given as “BQL” and the “lymph node Concentration individual” value was “BQL”. Moreover, in data set [3] (4 hr), the “plasma Concentration Mean” value is reported as “BQL”, the “plasma Concentration individual” value is given as “BQL”, the “spleen Concentration Mean” value was “BQL” and the “spleen Concentration individual” value is “BQL”. In addition, in data set [3] (8 hr), the “liver Concentration Mean” value is given as “BQL”, the “liver Concentration individual” value is listed as “BQL”, the “lymph node Concentration Mean” value is recorded as “BQL” and the “lymph node Concentration individual” value was “BQL”. In data set [3] (8 hr), the “plasma Concentration Mean” value is recorded as “BQL”, the “plasma Concentration individual” value is “BQL”, the “spleen Concentration Mean” value is on record as “BQL” and the “spleen Concentration individual” value was “BQL”. Further, in data set [3] (24 hr), the “liver Concentration Mean” value is recorded as “BQL”, the “liver Concentration individual” value is listed as “BQL”, the “lymph node Concentration Mean” value was “BQL” and the “lymph node Concentration individual” value was “BQL”. In data set [3] (24 hr), the “plasma Concentration Mean” value is listed as “BQL”, the “plasma Concentration individual” value is “BQL”, the “spleen Concentration Mean” value was “BQL” and the “spleen Concentration individual” value is given as “BQL”. For the same molecule, the “PBMC TOX PXC50” value in data set [4] is on record as under 5. Moreover, the IC50 in data set [5] was 1000 nM.

The values are drawn from patent US20210186960A1, “MODULATORS OF INDOLEAMINE 2,3-DIOXYGENASE” (GLAXOSMITHKLINE INTELLECTUAL PROPERTY DEVELOPMENT LIMITED, priority 2017, published 2021).
